In patent US20260250320A1, “LIPIDATED PEPTIDE INHIBITORS OF INTERLEUKIN-23 RECEPTOR” (Janssen Pharmaceutica NV, priority 2023, published 2026) one finds IC50 data, which are given here for three molecules.

*1 amine or outer side, *2 acyl side, *3 side chain or, on linkers, in order; H or OH if unused. Where a SMILES comes first, the peptide text is derived from it. Bridges are numbered along the chain shown (N, C = ends). Side-chain parts run from the residue outwards. [ ]: non-standard residue; d: D form. The star is where a group is joined. Me3N+(CH2)2O(CH2)2O(CH2)2CO = C[N+](C)(C)CCOCCOCCC(=O)*; PEG12 = NCCOCCOCCOCCOCCOCCOCCOCCOCCOCCOCCOCCOCCC(=O)O; CH2CH2OCH2CH2OCH2CH2NMe3+ = C[N+](C)(C)CCOCCOCC*; Trp(7-Me) = Cc1cccc2c(C[C@H](N)C(=O)O)c[nH]c12; C18 diacid = O=C(O)CCCCCCCCCCCCCCCCC(=O)*; γGlu = O=C(O)[C@H](CCC(=O)[*:2])N[*:1]; 2Nal = N[C@@H](Cc1ccc2ccccc2c1)C(=O)O; PEG6 = NCCOCCOCCOCCOCCOCCOCCC(=O)O; 3Pal = N[C@@H](Cc1cccnc1)C(=O)O; Lys(Me) = CNCCCC[C@H](N)C(=O)O; NMeK = CN[C@@H](CCCCN)C(=O)O; Pen = CC(C)(S)[C@H](N)C(=O)O; Thp = NC1(C(=O)O)CCOCC1; Sar = CNCC(=O)O

For assay [1], the system named is IL-23-stimulated phosphorylated STAT3 in peripheral blood mononuclear cells (PBMCs). The experiment in a line: PBMC pSTAT3 Assay. The assay is classed as cell-based. Conditions: PBMCs from healthy donors; 30 min preincubation with peptide; IL-23 5 ng/mL for 30 min; phospho-STAT3 by MSD. In a few lines:
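Phospho-STAT3 quantified by Meso Scale assay in lysates of PBMCs exposed to IL-23 (5 ng/mL, 30 min, 37 °C) after 30 min peptide pretreatment. Cells were cryopreserved donor PBMCs activated 4 days with anti-CD3 plus IL-1β (100 ng/mL) and starved ~4 h; IC50 reported.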

Assay [2] deals with T1, IL-23R (Homo sapiens, UniProt Q5VWK5).
T1 construct: HEK293 cells containing IL-23R, IL-12Rβ1 and a firefly luciferase reporter gene driven by a STAT-inducible promoter (Promega); host or cells: HEK293
T1 sequence (Q5VWK5 24-629): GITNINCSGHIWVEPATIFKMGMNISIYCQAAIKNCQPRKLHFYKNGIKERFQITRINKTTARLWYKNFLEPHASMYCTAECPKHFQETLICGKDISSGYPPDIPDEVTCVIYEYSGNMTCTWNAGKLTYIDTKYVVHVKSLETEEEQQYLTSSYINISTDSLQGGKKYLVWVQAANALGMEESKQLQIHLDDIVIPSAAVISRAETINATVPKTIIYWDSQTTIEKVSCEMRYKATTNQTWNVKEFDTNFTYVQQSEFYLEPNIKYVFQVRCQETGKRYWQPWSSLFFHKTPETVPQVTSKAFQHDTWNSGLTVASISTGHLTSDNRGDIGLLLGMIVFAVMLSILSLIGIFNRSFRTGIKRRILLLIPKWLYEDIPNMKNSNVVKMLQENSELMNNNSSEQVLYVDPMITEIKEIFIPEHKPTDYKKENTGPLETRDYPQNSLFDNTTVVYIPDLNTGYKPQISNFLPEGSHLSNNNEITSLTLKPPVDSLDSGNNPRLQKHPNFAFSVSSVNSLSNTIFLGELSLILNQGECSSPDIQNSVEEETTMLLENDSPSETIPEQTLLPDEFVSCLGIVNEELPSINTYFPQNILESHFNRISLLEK
Put plainly: IL23R Reporter Assay. The assay is classed as cell-based. Conditions: HEK293 cells containing IL-23R, IL-12Rβ1 and STAT-inducible firefly luciferase reporter; 10 ng/mL IL-23 (EC90); 5 h. In a few lines: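 IC50 values were fitted with a 4-parameter Hill equation to luciferase signal, scaled between IL-23-only wells (0% inhibition) and 30 μM reference inhibitor (100%). The readout was a STAT-inducible reporter in IL-23R/IL-12Rβ1 HEK293 cells, stimulated with added 10 ng/mL IL-23 (EC90) for 5 h at 37° C and developed with BioGlo.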
On the technique in general: A reporter such as luciferase makes a cellular process visible.

As for `CC(=O)N(C)CCCC[C@@H]1NC(=O)[C@H](Cc2c[nH]c3c(C)cccc23)NC(=O)[C@H]([C@@H](C)O)NC(=O)[C@H](CC(=O)N(C)C)NC(=O)[C@@H](NC(=O)CCOCCOCC[N+](C)(C)C)C(C)(C)SSC(C)(C)[C@@H](C(=O)N[C@@H](Cc2ccc(OCCOCCOCC[N+](C)(C)C)cc2)C(=O)N[C@@H](Cc2ccc3ccccc3c2)C(=O)NC2(C(=O)N[C@@H](CCCCN(C)C(C)=O)C(=O)N[C@@H](CC(N)=O)C(=O)N[C@@H](Cc3cccnc3)C(=O)N(C)[C@@H](CCCCNC(=O)CCOCCOCCOCCOCCOCCOCCOCCOCCOCCOCCOCCOCCNC(=O)CC[C@H](NC(=O)CCCCCCCCCCCCCCCCC(=O)O)C(=O)O)C(N)=O)CCOCC2)NC1=O` [compound 107, cPEG3aCO-Pen(3)-N(N(Me)2)-T-7MeW-K(NMeAc)-Pen(3)-APEG3F-2Nal-THP-K(NMeAc)-N-3Pya-NMeK(PEG12gEC18OH)-CONH2] ({Me3N+(CH2)2O(CH2)2O(CH2)2CO}-[Pen]D(NMe2)T[Trp(7-Me)][Lys(Me)](Ac)[Pen]Y(CH2CH2OCH2CH2OCH2CH2NMe3+)[2Nal][Thp][Lys(Me)](Ac)N[3Pal][NMeK]([PEG12-γGlu-C18 diacid])-NH2; disulfide 1-6), the figures for the concentration for half-maximal inhibition (IC50) in assay [1] and in assay [2] were < 0.5 nM and < 50 nM, respectively.

As for `CC(=O)N(C)CCCC[C@@H]1NC(=O)[C@H](Cc2c[nH]c3c(C)cccc23)NC(=O)[C@H]([C@@H](C)O)NC(=O)[C@H](CC(=O)N(C)C)NC(=O)[C@@H](NC(=O)CCOCCOCCOCCOCCOCCOCCOCCOCCOCCOCCOCCOCCNC(=O)CC[C@H](NC(=O)CCCCCCCCCCCCCCCCC(=O)O)C(=O)O)C(C)(C)SSC(C)(C)[C@@H](C(=O)N[C@@H](Cc2ccc(OCCOCCOCC[N+](C)(C)C)cc2)C(=O)N[C@@H](Cc2ccc3ccccc3c2)C(=O)NC2(C(=O)N[C@@H](CCCCN(C)C(C)=O)C(=O)N[C@@H](CC(N)=O)C(=O)N[C@@H](Cc3cccnc3)C(=O)N(C)CC(=O)N(C)C)CCOCC2)NC1=O` [compound 108, HOC18gEPEG12CO-Pen(3)-N(N(Me)2)-T-7MeW-K(NMeAc)-Pen(3)-APEG3F-2Nal-THP-K(NMeAc)-N-3Pya-Sar-CON(Me)2] ({C18 diacid-γGlu-PEG12}-[Pen]D(NMe2)T[Trp(7-Me)][Lys(Me)](Ac)[Pen]Y(CH2CH2OCH2CH2OCH2CH2NMe3+)[2Nal][Thp][Lys(Me)](Ac)N[3Pal][Sar]-NMe2; disulfide 1-6), the IC50 – broadly, the concentration that gives 50% inhibition – in assay [1] is < 0.5 nM; in assay [2] it was < 50 nM.

Regarding `CC(=O)N(C)CCCC[C@@H]1NC(=O)[C@H](Cc2c[nH]c3c(C)cccc23)NC(=O)[C@H]([C@@H](C)O)NC(=O)[C@H](CC(=O)N(C)C)NC(=O)[C@@H](NC(=O)CCOCCOCCOCCOCCOCCOCCNC(=O)CC[C@H](NC(=O)CCCCCCCCCCCCCCCCC(=O)O)C(=O)O)C(C)(C)SSC(C)(C)[C@@H](C(=O)N[C@@H](Cc2ccc(OCCOCCOCC[N+](C)(C)C)cc2)C(=O)N[C@@H](Cc2ccc3ccccc3c2)C(=O)NC2(C(=O)N[C@@H](CCCCN(C)C(C)=O)C(=O)N[C@@H](CC(N)=O)C(=O)N[C@@H](Cc3cccnc3)C(=O)N(C)CC(=O)N(C)C)CCOCC2)NC1=O` [compound 109, HOC18gEPEG6CO-Pen(3)-N(N(Me)2)-T-7MeW-K(NMeAc)-Pen(3)-APEG3F-2Nal-THP-K(NMeAc)-N-3Pya-Sar-CON(Me)2] ({C18 diacid-γGlu-PEG6}-[Pen]D(NMe2)T[Trp(7-Me)][Lys(Me)](Ac)[Pen]Y(CH2CH2OCH2CH2OCH2CH2NMe3+)[2Nal][Thp][Lys(Me)](Ac)N[3Pal][Sar]-NMe2; disulfide 1-6), the IC50 in assay [1] was < 0.5 nM; in assay [2] it was < 50 nM.
